Data taken from ChEMBL document CHEMBL3217633, “Simplified platensimycin analogues as antibacterial agents” (2012).
Values after ≈ are worked out from the molar mass of the structure shown. Active and inactive are the calls of the source. The calls are words filed in the database; no cut-off is given here.

Columns and labels:
[1] = system: Staphylococcus aureus; assay: Antimicrobial activity against methicillin-resistant Staphylococcus aureus ATCC 43300 at 10 ug/disc after 24 hrs by disc diffusion assay; format: functional; settings: ATCC 43300, 24 h, read-out: DIZ
[2] = system: Pseudomonas aeruginosa; assay: Antimicrobial activity against Pseudomonas aeruginosa ATCC 27853; format: functional, organism-based
[3] = system: Acinetobacter baumannii; assay: Antimicrobial activity against Acinetobacter baumannii ATCC 19606; format: functional
[4] = system: Klebsiella pneumoniae; assay: Antimicrobial activity against Klebsiella pneumoniae ATCC 13883; format: functional, organism-based
[5] = system: Staphylococcus aureus; assay: Antimicrobial activity against heterogeneous vancomycin-intermediate Staphylococcus aureus ATCC 700698 after 24 hrs by broth microdilution method; format: functional; settings: ATCC 700698, 24 h
[6] = system: Staphylococcus aureus; assay: Antimicrobial activity against methicillin-resistant Staphylococcus aureus ATCC 43300 after 24 hrs by broth microdilution method; format: functional; settings: ATCC 43300, 24 h
[7] = system: Staphylococcus aureus; assay: Antimicrobial activity against vancomycin-intermediate Staphylococcus aureus ATCC 700699 after 24 hrs by broth microdilution method; format: functional; settings: ATCC 700699, 24 h
[8] = system: Staphylococcus aureus; assay: Antimicrobial activity against methicillin-resistant Staphylococcus aureus ATCC 43300 at 1 mg/disc after 24 hrs by disc diffusion assay; format: functional

| Structure (SMILES) | zone of inhibition at 10 µg/disc [1] [mm] | diameter of the inhibition zone (DIZ) [8] [mm] | other results |
| --- | --- | --- | --- |
| CCC(=O)Nc1c(O)ccc(C(=O)O)c1O | 0 | – | – |
| CC12C[C@@]34C=CC(=O)[C@@](C)(CCC(=O)Nc5c(O)ccc(C(=O)O)c5O)C3[C@H](CC1C4)O2 (stereo partly drawn) [PLATENSIMYCIN] | 30 | – | Activity [2]: inactive; Activity [3]: inactive; Activity [4]: inactive; MIC [5]: 2 µg/mL (≈ 4.53 µM); MIC [6]: 2 µg/mL (≈ 4.53 µM); MIC [7]: 2 µg/mL (≈ 4.53 µM) |
| CC(C)(C)C(=O)Nc1c(O)ccc(C(=O)O)c1O | 0 | – | – |
| CCC1(C(=O)Nc2c(O)ccc(C(=O)O)c2O)CCCCC1 | 0 | 10 | – |
| CC12CC[C@@](C(=O)Nc3cccc(C(=O)O)c3O)(OC1=O)C2(C)C | 0 | 21 | – |
| CC(C)C(=O)Nc1cccc(C(=O)O)c1O | 0 | – | – |
| CCCC(=O)Nc1c(O)ccc(C(=O)O)c1O | 0 | 20 | – |
| O=C(O)c1cccc(NC(=O)C2CCCCC2)c1O | 0 | – | – |
| CC12CC[C@](C(=O)Nc3cccc(C(=O)O)c3O)(OC1=O)C2(C)C | 0 | 14 | – |
| CC(=O)NC[C@H]1CN(c2ccc(N3CCOCC3)c(F)c2)C(=O)O1 [LINEZOLID] | 26 | – | – |
| O=C(O)c1cccc(NC(=O)C2CCCC2)c1O | 0 | – | – |
| CCC(=O)Nc1cccc(C(=O)O)c1O | 0 | – | – |
| CCCC(=O)Nc1cccc(C(=O)O)c1O | 0 | – | – |
| O=C(O)c1ccc(O)c(NC(=O)C2CCCCC2)c1O | 0 | – | – |
| O=C(O)c1cccc(NC(=O)C23CC4CC(CC(C4)C2)C3)c1O | 0 | 11 | – |
| CC(C)C(=O)Nc1c(O)ccc(C(=O)O)c1O | 0 | – | – |
| CC(C)(C)C(=O)Nc1cccc(C(=O)O)c1O | 0 | – | – |
| O=C(O)c1ccc(O)c(NC(=O)C2CCCC2)c1O | 0 | 8 | – |
| O=C(O)c1ccc(O)c(NC(=O)C23CC4CC(CC(C4)C2)C3)c1O | 0 | 11 | – |
| CC12CC[C@](C(=O)Nc3c(O)ccc(C(=O)O)c3O)(OC1=O)C2(C)C | 18 | 38 | – |
| CC12CC[C@@](C(=O)Nc3c(O)ccc(C(=O)O)c3O)(OC1=O)C2(C)C | 0 | 22 | – |
| CCC1(C(=O)Nc2cccc(C(=O)O)c2O)CCCCC1 | 0 | 10 | – |
